Measurements as given in patent publication US8246942B2, “Microbicidal compositions” (LANXESS Deutschland GmbH, priority 2000, dated 2012).
Read-outs that look alike come from different tables or passages of the source.

Test system: Pseudomonas fluorescens
Assay: Determination of the minimum inhibitory concentration (MIC) against Pseudomonas fluorescens
Format: cell-based
Conditions: for MIC: Pseudomonas fluorescens, read-out: MIC value against Pseudomonas fluorescens
Text: The observed synergism of the active compound mixtures, claimed in the present application, consisting of o-phenylphenol (OPP) and other bactericides can be determined by the following mathematical equation (see F. C. Kull, P. C. Elisman, H. D. Sylwestrowicz and P. K. Mayer, Appl. Microbiol. 9, 538 (1960):
[formula] where • Qa=the amount of component A in the active compound mixture which achieves the desired effect, i.e. no microbial growth. • QA=the amount of component A which, when used on its own, suppresses the growth of the microorganisms. • Qb=the amount of component B in the active compound mixture which suppresses the growth of the microorganisms. • Qb=the amount of component B which, when used on its own, suppresses the growth of the microorganisms.
A synergistic index of <1 indicates a synergistic effect for the active compound mixture.
Determination of the Minimum Inhibitory Concentration (MIC) of Compositions According to the Invention Against Pseudomonas fluerescens

[1] = Example 2, OPP/Tektamer 38, weight ratios

For `O=[N+]([O-])C(Br)(CO)CO` [BNPD, 2-bromo-2-nitro-1,3-propanediol], the MIC (Example 1, OPP/BNPD (bronopol), weight ratios) was 35 µg/mL.
`N#CCCC(Br)(C#N)CBr` (stereo not drawn) [Tektamer 38, 1,2-dibromo-2,4-dicyanobutane] showed an MIC [1] of 100 µg/mL.
For `Cn1sccc1=O` [MIT, 2-methyl-2H-isothiazol-3-one], the MIC was 30 µg/mL.
`Oc1ccccc1-c1ccccc1` [OPP, o-phenylphenol] was tested, and the “MIC value against Pseudomonas fluorescens” value [1] was 500 µg/mL, the “MIC value against Pseudomonas fluorescens” value (Example 3, OPP/MIT, weight ratios) was 500 µg/mL and the MIC was 500 µg/mL.
